{"source": "patent US20030083483A1", "about": "“Molecular interaction sites of vimentin RNA and methods of modulating the same” (priority 1999, published 2003)", "key": {"[1]": {"tested_on": "27-mer RNA corresponding to the 16S rRNA A site containing 3 dA residues", "assay": "MS-MS CID/CAD protection assay on chimeric 27-mer RNA/DNA", "assay_type": "binding, prokaryotic", "conditions": "same activation energy as free RNA", "source_text": "In order to study the binding of paromomycin to the RNA of Example 20, the chimeric RNA/DNA molecule of Example 20 was synthesized using standard automated nucleic acid synthesis protocols on an automated synthesizer. A sample of this nucleic acid was then subjected to ESI followed by CID in a mass spectrometer to afford the fragmentation pattern indicating a lack of structure at the sites of dA incorporation, as described in Example 20. This indicated the accessibility of these dA sites in the structure of the chimeric nucleic acid.\nNext, another sample of the chimeric nucleic acid was treated with a solution of paromomycin and the resulting mixture analyzed by ESI followed by CID using a mass spectrometer. […] This was also indicative of binding of the paromomycin to the chimeric nucleic acid, because of the increased mass of the observed ion complex. Further, there was also observed, a shift in the distribution of the multiply charged ion complexes which reflected a change in the conformation of the nucleic acid in the paromomycin-nucleic acid complex into a more compact structure. […]\nThe mass spectrum obtained from a 5 μM solution of C mixed with 125 nM paromomycin contains [M-5H]^5− ions from free C at m/z 1783.6 and the [M-5H]^5− ions of the paromomycin-C complex at m/z 1907.3. […] Signals from the [M-4H]^4− ions of C and the complex are detected at m/z 2229.8 and 2384.4, respectively. […]"}, "[2]": {"target": "16S A-site RNA", "conditions": "previously reported / solution value for 16S A site; read-out: literature Kd; cited from earlier work"}}, "note": "“Also recorded” adds a separate entry of the source."}
{"compound": "NC[C@@H]1O[C@H](O[C@H]2[C@@H](O)[C@H](O[C@@H]3[C@@H](O)[C@H](N)C[C@H](N)[C@H]3O[C@H]3O[C@H](CO)[C@@H](O)[C@H](O)[C@H]3N)O[C@@H]2CO)[C@H](N)[C@@H](O)[C@@H]1O", "note": "[Paromomycin]", "values": [{"measurement": "fragmentation at the dA sites of the ligand-RNA complex on CID/CAD", "setting": "[1]", "value": "no fragmentation at the dA sites; also recorded: No cleavage was found to occur; also recorded: No significant fragment ions are observed; also recorded: no fragment ions are detected"}, {"measurement": "Kd", "setting": "[2]", "value": 200, "unit": "nM"}]}
